Earlier results as cited in patent US7816298B2, “Hydroconversion processes employing multi-metallic catalysts and method for making thereof” (Chevron U. S. A. Inc., priority 2007, dated 2010).

System: rats
Conditions: as single oral dose to rats; values quoted for chelating agents (ligand L)

For O=CC(=O)O [glyoxylic], the LD50 is listed as 3000 mg/kg.
